Test results from publication PMC12040169 (PLOS Biology, 2025).

Assay: in vitro
Conditions: human, hela cells, % viability

Row | Structure (SMILES) | viability at 28.5 h, 10 µM | viability at 28.5 h, 10 µM (bulk resorufin, single well)
1 | O=C(CSc1nnc(-c2cccs2)n1-c1ccccc1)c1c[nH]c2ccccc12 [CBK268452] | 101% | 
2 | COc1cc(C(=O)O)ccc1OCC(=O)Nc1ccc(F)cc1 [CBK287101] | 95.5% | 
3 | COC(=O)C1CC(O)CC1C(=O)N1CCCC1 (stereo not drawn) [CBK011029] | 89.6% | 
4 | CN(C)c1ccccc1C1(O)CN2CCC1CC2 (stereo not drawn) [CBK022620] | 86.8% | 
5 | Cc1nn(CCS(C)(=O)=O)c(C)c1CN1CCOC(c2ccccc2)C1 (stereo not drawn) [CBK306162] | 80.4% | 
6 | Cc1nccn1CCNC(=O)c1ccccc1Cn1cccn1 [CBK281979] | 101% | 
7 | Cc1cc(NS(=O)(=O)c2c(C)nn(C)c2Cl)n(C)n1 [CBK067245] | 99.9% | 
8 | Cc1nc(Cc2nc(-c3ccc4c(c3)CCCN4S(C)(=O)=O)cs2)cs1 [CBK304542] | 97.3% | 
9 | C/C(=N/OCC(=O)Nc1oc(-c2ccccc2)c(-c2ccccc2)c1C#N)c1cccs1 [CBK262932] | 89.6% | 
10 | O=C(COc1ccccc1)Nc1nnc(-c2ccccc2)o1 [CBK287599] | 99.8% | 
11 | O=C(C1CCCCC1)N1CCC(c2nnc3n2CCCCC3)CC1 [CBK284613] | 92.7% | 
12 | COc1ccc(NC(=O)CSc2ncnc3ccccc23)cc1 [CBK270215] | 94% | 
13 | c1ccc2c(c1)CCN2c1ncnc2c1nc1n2CCCCC1 [CBK291119] | 91.1% | 
14 | COCCCNCCSc1ccc(Cl)cc1 [CBK265093] | 95% | 
15 | Cc1cccc(CN2CCC(N(C)Cc3nnc(C4CC4)n3C)C2)c1 (stereo not drawn) [CBK305165] | 88.5% | 
16 | COc1ccc(CNC(=O)N2CCN(c3cc(C(F)(F)F)ccn3)CC2)cc1OC [CBK162344] | 82.5% | 
17 | O=C(O)C1CCN(c2cncc(-c3ccc4ccccc4c3)n2)CC1 [CBK065801] | 95.5% | 
18 | CS(=O)(=O)Nc1cc2cccnc2c(-c2ccc3c(c2)CCO3)n1 [CBK085705] | 101% | 
19 | CN1C[C@H](C(N)=O)[C@@H](c2ccc(CN(C)C(=O)c3cccc(Oc4ccccc4)c3)cc2)C1 [CBK285572] | 114% | 
20 | COc1ccc(C(=O)NC(c2ccccc2Cl)c2cc(Cl)c3cccnc3c2O)cc1 (stereo not drawn) [CBK264036] | 88% | 
21 | C=CCNC(=O)c1ccccc1NC(=O)Cc1ccc(Cl)cc1 [CBK270086] | 101% | 
22 | O=C(NCc1cccs1)c1ccc2c(=O)n3c(nc2c1)CCN(Cc1ccccc1)CC3 [CBK286448] | 100% | 

Row | Structure (SMILES) | viability at 28.5 h, 10 µM | viability at 28.5 h, 10 µM (bulk resorufin, single well)
23 | O=C(O)c1cc(C(=O)O)cc(N2C(=O)c3ccc(S(=O)(=O)c4ccc5c(c4)C(=O)N(c4cc(C(=O)O)cc(C(=O)O)c4)C5=O)cc3C2=O)c1 [CBK261336] | 100% | 
24 | COc1ccc(C(C)NC(=O)c2cccc(-c3ccc4c(c3)COC3(CCN(C(=O)OC(C)(C)C)CC3)O4)c2)cc1 (stereo not drawn) [CBK107833] |  | 100%
25 | Cc1n[nH]c(C)c1Sc1ccccc1/N=C/c1ccc([N+](=O)[O-])cc1 [CBK262045] | 87.4% | 
26 | CC1(C)CN=C(N2CCN(C3=NCC(C)(C)S3)CC2)S1 [CBK020461] | 93.8% | 
27 | COCCOCCOc1ccccc1OCCOCCOC [CBK009636] | 89% | 
28 | Fc1ccc(-c2cn(-c3ccc(OCc4ccccc4)c(F)c3)nn2)cc1 [CBK113121] | 99% | 
29 | CCOC(=O)c1c(NC(=O)CSc2nnc[nH]2)sc2c1CCCC2 [CBK265999] | 93.1% | 
30 | Brc1ccc(CN2CCN(Cc3c[nH]c4ccccc34)CC2)cc1 [CBK027622] | 85.4% | 
31 | CCN(C(=O)Cn1cccc(OC)c1=O)C1CCOC(C)(C)C1 (stereo not drawn) [CBK306879] | 86.5% | 
32 | CC(C)(C)NCC(O)c1ccc(O)c2c1C1CCC2CC1 (stereo not drawn) [CBK013269C] | 93.9% | 
33 | CCC(CO)NCc1ccc(OCC(N)=O)cc1 (stereo not drawn) [CBK304670] | 100% | 
34 | CCOC(=O)C(Cc1ccccc1)C(=O)Nc1ccc(Cl)cc1 (stereo not drawn) [CBK261463] | 84.2% | 
35 | O=C(Nc1ccc2[nH]ccc2c1)c1c(F)ccc(Cl)c1F [CBK159673] | 78.6% | 
36 | O=C(CSc1nc2ccccc2[nH]1)c1ccccc1 [CBK261298] | 92.9% | 
37 | N#C/C(=C/c1cn(CCC(N)=O)c2ccccc12)c1ccc2c(c1)OCO2 [CBK267319] | 90.2% | 
38 | CSCCC(=O)N1CCC2(CCN(C(=O)c3cc(F)c(F)cc3F)C2)C1 (stereo not drawn) [CBK131397] | 99.5% | 
39 | O=C(Nc1ccncc1)c1ccc(CNS(=O)(=O)c2cccc(C(F)(F)F)c2)cc1 [CBK267181] | 88.5% | 
40 | Cc1cc(=O)n(CC(=O)NCCn2ccnc2)c2ccccc12 [CBK281583] | 94.3% | 
41 | CCN(C(C)COC)S(=O)(=O)c1ccc(-n2ncc(Cl)c(Cl)c2=O)cc1 (stereo not drawn) [CBK305662] | 37% | 
42 | O=C(CCc1ccno1)NC(Cc1ccsc1)c1cccnc1 (stereo not drawn) [CBK285395] | 97.3% | 
43 | O=[N+]([O-])c1ccccc1OCCCn1c2ccccc2c2ccccc21 [CBK264799] | 92.1% | 
44 | CC(C)(C)c1cc(C(=O)Nc2ccccn2)n(Cc2ccc(Cl)cc2Cl)n1 [CBK107361] | 89.6% | 

Row | Structure (SMILES) | viability at 28.5 h, 10 µM | viability at 28.5 h, 10 µM (bulk resorufin, single well)
45 | C=C(C)Cn1c(SCC(=O)O)nnc1-c1ccc([N+](=O)[O-])cc1 [CBK263159] | 89.8% | 
46 | CCCC1=NNC(=O)/C1=C\c1cnc[nH]1 [CBK067767] | 105% | 
47 | Cc1ccc(C2CCCN2C(=O)Cn2cc(C(=O)NCc3ccccc3)ccc2=O)cc1C (stereo not drawn) [CBK286051] | 88.1% | 
48 | O=C(Nc1ccc2n(c1=O)C[C@H]1C[C@@H]2CN(C(=O)NC2CCCCC2)C1)c1cnccn1 [CBK289076] | 86.8% | 
49 | O=C(CCN1C(=O)c2cccc([N+](=O)[O-])c2C1=O)Nc1cccc(-c2cnc3ccccc3n2)c1 [CBK268620] | 104% | 
50 | NS(=O)(=O)c1ccc(CCNC(=O)C2CC2)cc1 [CBK288407] | 107% | 
51 | Cc1nccn1CC1(O)CCN(Cc2cn(C)c3ccccc23)CC1 [CBK285017] | 102% | 
52 | COc1ccc(-c2cc(C(=O)NCCS(C)(=O)=O)cnc2-c2ccc(Cl)cc2)cc1 [CBK037620] | 111% | 
53 | O=C(Nc1ccc(-c2ccc(NC(=O)c3ccncc3)cc2)cc1)c1ccncc1 [CBK262321] | 98.9% | 
54 | CC(N(C)CC(=O)NCc1ccc(OCC(N)=O)cc1)C(C)(C)C (stereo not drawn) [CBK306338] | 99.2% | 
55 | O=C(Cn1cnc2c(F)cc(Br)cc2c1=O)N1CCOC2CCCCC21 (stereo not drawn) [CBK305229] | 89.2% | 
56 | N#Cc1cccc(CN2CC[C@H](c3nnc(-c4ccco4)o3)C2)c1 [CBK289394] | 92.5% | 
57 | Cc1nc2n(n1)CCN(C(=O)Cc1c(C)[nH]c3ccc(F)cc13)C2 [CBK284355] | 83.1% | 
58 | O=C(CCC1COc2ccccc2O1)Nc1ccc(C(=O)O)cc1 (stereo not drawn) [CBK269856] | 89.7% | 
59 | COc1ccc(-n2ncc(-c3ccc(C(F)(F)F)cc3)n2)cc1 [CBK112688] | 92.4% | 
60 | Cc1ccc(NC(=O)CSc2nnc(COc3ccc(Cl)cc3Cl)o2)cc1Cl [CBK264113] | 90.9% | 
61 | COc1ccc(-c2ccc3ccc(=O)[nH]c3n2)cc1C [CBK073712] | 108% | 
62 | CC(=O)c1c(C)[n+]([O-])c2cc(Cl)c(Cl)cc2[n+]1[O-] [CBK265017] | 108% | 
63 | NC(=O)C1CCN(C(=O)CSc2nc3ccccc3o2)CC1 [CBK265930] | 97.8% | 
64 | Cc1cccc(N(CC(=O)Nc2ccc3c(c2)oc2ccccc23)S(=O)(=O)c2ccccc2)c1 [CBK264813] | 101% | 
65 | O=S(=O)(Nc1ccc2[nH]ccc2c1)c1cc(C(F)(F)F)cc(C(F)(F)F)c1 [CBK156330] | 102% | 
66 | COCCN1CCN(c2cncc(-c3ccc(O)cc3)n2)CC1 [CBK126951T] | 93.6% | 

Row | Structure (SMILES) | viability at 28.5 h, 10 µM | viability at 28.5 h, 10 µM (bulk resorufin, single well)
67 | COc1ccc(NC(=O)C2CCCN2S(=O)(=O)c2ccc(OC)cc2)cc1 (stereo not drawn) [CBK070001] | 78.1% | 
68 | O=C1CC(c2ccccc2)CC(=O)C1=CNCc1ccccn1 (stereo not drawn) [CBK262521] | 105% | 
69 | O=C(O)C1CC=CCC1C(=O)Nc1ccc(S(=O)(=O)N2CCc3ccccc32)cc1 (stereo not drawn) [CBK268122] | 108% | 
70 | O=C(Nc1ccc2ncccc2c1)c1cnc(-c2cccc(C(F)(F)F)c2)c(-c2cccnc2)c1 [CBK037591] | 89.9% | 
71 | CC(NC(=O)N1CCCCC1CO)c1ccccc1 (stereo not drawn) [CBK155988] | 93.1% | 
72 | CCCNc1nccnc1-c1ccccc1F [CBK037231] | 104% | 
73 | COC(=O)[C@@H](C)NC(=O)[C@H]1CN(C(=O)c2cccnc2)CCN1C(=O)NC1CCCCC1 [CBK289632] | 86% | 
74 | O=C(NCCc1ccccc1)c1cc(Br)cnc1NCCCn1ccnc1 [CBK076421] | 103% | 
75 | CC(C)(C)C(=O)N[C@H]1CO[C@H]2[C@@H]1OC[C@@H]2Nc1nccc(C2CCCC2)n1 [CBK289530] | 115% | 
76 | Cc1cc(C)nc(N2CCC(CC(=O)NC(C)CCN3CCCCCC3)CC2)n1 (stereo not drawn) [CBK285993] | 96.4% | 
77 | c1ccc2c(c1)CCN(Cc1ccc3ccccc3c1)C2 [CBK126397] | 122% | 
78 | COC(=O)[C@H]1CCc2ccccc2N1C(=O)C1CCC1 [CBK285478] | 100% | 
79 | Cc1nc2ncnn2c(C)c1CCC(=O)Nc1cccc(CCc2ccncc2)c1 [CBK285557] | 99.8% | 
80 | O=C(O)CC1(CC(=O)Nc2ccc(N3CCCC3=O)c(Cl)c2)CCCCC1 [CBK296664] | 96.3% | 
81 | CC1(C)CCCC2=C1CC(C(=O)O)C(C(=O)NCc1cccnc1)C2 (stereo not drawn) [CBK286795] | 83.3% | 
82 | OC1(C2CNc3ccccc3C2)CCNCC1 (stereo not drawn) [CBK283847] | 110% | 
83 | OC1CCN(Cc2c([C@H]3CCCO3)[nH]c3ncccc23)CC1 [CBK286301] | 110% | 
84 | O=C1CN(C(=O)NC2CCc3ccccc32)CCN1 (stereo not drawn) [CBK155878] | 97.5% | 
85 | O=C(N[C@H]1CCN2C(=O)N(c3ccc(Br)cc3)C(=O)[C@@H]2C1)c1cccnc1 [CBK289557] | 104% | 
86 | COc1ccc(-c2cc(C(=O)NCC3CCNCC3)cnc2-c2ccc(Cl)cc2)cn1 [CBK036700] | 105% | 
87 | Cc1cc(CNC(=O)C(C)n2cnc3ccccc32)on1 (stereo not drawn) [CBK282196] | 90.7% | 
